Results reported in US8546421B1, “Oncogenic-RAS-signal dependent lethal compounds” (The Trustees of Columbia University in the City of New York, priority 2007, dated 2013).
≈ marks a conversion by molar mass, not a printed value. Entries after “also recorded” stand apart in the source; their conditions may differ. Read-outs that look alike come from different tables or passages of the source.

Tests used:
K-562 = assay: NCI60 anti-cancer screening
[1] = system: BJ-TERT/LT/ST/RAS^V12 cells; assay: Counter screening with iron chelators; assay type: cell-based, human; conditions: DFOM and three additional iron-binding compounds; 24 hours
Description: Cells were treated with iron chelators by transferring 4 μL of 1 mM deferoxamine mesylate (Calbiochem, cat.#252750), 500 μM compound 1a (Chembridge, cat.#5175092), 1 mM compound 2 (Ryan Scientific, cat.#LT01784723), or 100 μM compound 311 (Chembridge, cat.#5135701) in growth media to the assay plate. Then, 4 μL was transferred from the ‘10× lethal plate’ (described in ‘counter screening with biologically active compounds’) to the assay plate in order to induce cell death. Assay plates were incubated for 24 hours and alamar blue was added to the plates at a final concentration of 10%.

SNB-75 = assay: NCI60 anti-cancer screening; conditions: for GI50 / CC50: Homo sapiens; for GI50 / GI 100%: SNB-75; for CC50: SNB-75, read-out: LC 50%; for GI 100%: CNS Cancer
[2] = system: BJ-TERT/LT/ST/RAS^V12 cells; assay: Alamar blue growth inhibition in dilution series; assay type: cell-based, human
A498 = assay: NCI60 anti-cancer screening; conditions: for GI 100% / GI50: A498; for GI 100%: Renal Cancer; for GI50 / CC50: Homo sapiens; for CC50: A498, read-out: LC 50%
SR = assay: NCI60 anti-cancer screening; conditions: for GI50 / CC50: Homo sapiens; for CC50: read-out: LC 50%; for GI 100%: Leukemia
MOLT-4 = assay: NCI60 anti-cancer screening; conditions: for GI50 / CC50: Homo sapiens; for GI50 / GI 100%: MOLT-4; for CC50: MOLT-4, read-out: LC 50%; for GI 100%: Leukemia
[3] = system: A549, Calu-1, PaCa, and HCT116 cells; assay: Alamar blue assay in KRAS-mutation-harboring cancer cells; assay type: cell-based, human
Description: A549, Calu-1, HCT116 and MIA PaCa-2 cell lines have an oncogenic mutation in the KRAS gene. Compounds which tested positive in the oncogenic HRAS primary screen were also tested for their selectivity against oncogenic KRAS which is more commonly mutated in human cancers.

CCRF-CEM = assay: NCI60 anti-cancer screening; conditions: for GI50 / CC50: Homo sapiens; for CC50: read-out: LC 50%; for GI 100%: Leukemia
786-0 = assay: NCI60 anti-cancer screening; conditions: for GI 100% / GI50: 786-0; for GI 100%: Renal Cancer; for GI50 / CC50: Homo sapiens; for CC50: 786-0, read-out: LC 50%
BT-549 = assay: NCI60 anti-cancer screening; conditions: for GI 100% / GI50: BT-549; for GI 100%: Breast Cancer; for GI50 / CC50: Homo sapiens; for CC50: BT-549, read-out: LC 50%
SK-MEL-5 = assay: NCI60 anti-cancer screening
UACC-257 = assay: NCI60 anti-cancer screening
ACHN = assay: NCI60 anti-cancer screening
COLO 205 = assay: NCI60 anti-cancer screening
T-47D = assay: NCI60 anti-cancer screening
DU-145 = assay: NCI60 anti-cancer screening
OVCAR-4 = assay: NCI60 anti-cancer screening
SK-MEL-28 = assay: NCI60 anti-cancer screening
MDA-MB-231/ATCC = assay: NCI60 anti-cancer screening
OVCAR-8 = assay: NCI60 anti-cancer screening
SF-268 = assay: NCI60 anti-cancer screening
MALME-3M = assay: NCI60 anti-cancer screening
LOX IMVI = assay: NCI60 anti-cancer screening
TK-10 = assay: NCI60 anti-cancer screening
NCI-H23 = assay: NCI60 anti-cancer screening

## COCCOC(=O)C1=C(C)NC2=C(C(=O)CC(c3ccc(Cl)cc3)C2)C1c1ccccc1F (stereo not shown) [Compound 3]
K-562; Homo sapiens, K562
  GI50: 9.16 µM
K-562; Homo sapiens, K562, read-out: LC 50%
  CC50: > 10 µM
K-562; K-562, Leukemia
  GI 100%: >10 µM
[1]
  effect of iron chelators on compound activity / induced cell death: significantly inhibited
SNB-75
  GI50: 9.61 µM
  CC50: > 10 µM
  GI 100%: >10 µM
[2]; Homo sapiens, alamar blue
  IC90: 10 µg/mL (≈ 21.3 µM)
A498
  GI 100%: >10 µM
  GI50: 3.39 µM
  CC50: > 10 µM
SR
  GI50: 7.15 µM
  CC50: > 10 µM
  GI 100%: >10 µM
MOLT-4
  GI50: 8.39 µM
  CC50: > 10 µM
  GI 100%: >10 µM
[3]
  activity in KRAS-mutation-harboring cancer cells (in words): less activity
CCRF-CEM
  GI50: 7.95 µM
  CC50: > 10 µM
  GI 100%: >10 µM
786-0
  GI 100%: >10 µM
  GI50: 9.27 µM
  CC50: > 10 µM
BT-549
  GI 100%: >10 µM
  GI50: 4.28 µM
  CC50: > 10 µM

## COC(=O)c1ccc(C2c3[nH]c4ccccc4c3CC(C(=O)OC)N2C(=O)CCl)cc1 (stereo not shown) [Compound 27]
SK-MEL-5; Homo sapiens, SK-MEL-5
  GI50: 1.38 µM
SK-MEL-5; Homo sapiens, SK-MEL-5, read-out: LC 50%
  CC50: 5.16 µM
SK-MEL-5; SK-MEL-5, Melanoma
  GI 100%: 2.67 µM
[1]
  effect of iron chelators on compound activity / induced cell death: suppressed by all of these iron chelators moderately; also recorded: significantly inhibited
UACC-257; Homo sapiens, UACC-257
  GI50: 1.37 µM
UACC-257; Homo sapiens, UACC-257, read-out: LC 50%
  CC50: > 10 µM
UACC-257; UACC-257, Melanoma
  GI 100%: 7.46 µM
ACHN; Homo sapiens
  GI50: 0.187 µM
ACHN; Homo sapiens, read-out: LC 50%
  CC50: 3.25 µM
ACHN; Renal Cancer
  GI 100%: 1.05 µM
COLO 205; COLO 205, Colon Cancer
  GI 100%: 3.44 µM
COLO 205; Homo sapiens, COLO 205
  GI50: 1.67 µM
COLO 205; Homo sapiens, COLO 205, read-out: LC 50%
  CC50: 7.07 µM
T-47D; Homo sapiens, T47D
  GI50: 1.64 µM
T-47D; Homo sapiens, T47D, read-out: LC 50%
  CC50: > 10 µM
T-47D; T-47D, Breast Cancer
  GI 100%: 5.16 µM
DU-145; DU-145, Prostate Cancer
  GI 100%: 1.4 µM
DU-145; Homo sapiens, DU-145
  GI50: 0.308 µM
DU-145; Homo sapiens, DU-145, read-out: LC 50%
  CC50: 4.01 µM
OVCAR-4; Homo sapiens, OVCAR-4
  GI50: 4.3 µM
OVCAR-4; Homo sapiens, OVCAR-4, read-out: LC 50%
  CC50: > 10 µM
OVCAR-4; OVCAR-4, Ovarian Cancer
  GI 100%: >10 µM
SNB-75
  GI50: 0.745 µM
  CC50: > 10 µM
  GI 100%: 3.06 µM
[2]
  concentration at which growth was inhibited (as low as): ≥ 0.01 µg/mL
[2]; 48 hours
  concentration at which growth was inhibited (as low as): ≥ 0.01 µg/mL
SK-MEL-28; Homo sapiens, SK-MEL-28
  GI50: 1.62 µM
SK-MEL-28; Homo sapiens, SK-MEL-28, read-out: LC 50%
  CC50: 6.76 µM
SK-MEL-28; SK-MEL-28, Melanoma
  GI 100%: 3.31 µM
A498
  GI 100%: 4.52 µM
  GI50: 1.83 µM
  CC50: > 10 µM
MDA-MB-231/ATCC; Homo sapiens, MDA-MB-231
  GI50: 1.2 µM
MDA-MB-231/ATCC; Homo sapiens, MDA-MB-231, read-out: LC 50%
  CC50: 9.18 µM
MDA-MB-231/ATCC; MDA-MB-231/ATCC, Breast Cancer
  GI 100%: 3.32 µM
OVCAR-8; Homo sapiens, OVCAR-8
  GI50: 2.32 µM
OVCAR-8; Homo sapiens, OVCAR-8, read-out: LC 50%
  CC50: > 10 µM
OVCAR-8; OVCAR-8, Ovarian Cancer
  GI 100%: >10 µM
SF-268; Homo sapiens, SF-268
  GI50: 0.0692 µM
SF-268; Homo sapiens, SF-268, read-out: LC 50%
  CC50: 0.577 µM
SF-268; SF-268, CNS Cancer
  GI 100%: 0.218 µM
MALME-3M; Homo sapiens, Malme-3M
  GI50: 0.406 µM
MALME-3M; Homo sapiens, Malme-3M, read-out: LC 50%
  CC50: 4.6 µM
MALME-3M; MALME-3M, Melanoma
  GI 100%: 1.53 µM
LOX IMVI; Homo sapiens
  GI50: 0.182 µM
LOX IMVI; Homo sapiens, read-out: LC 50%
  CC50: 0.826 µM
LOX IMVI; Melanoma
  GI 100%: 0.387 µM
SR
  GI50: 0.4 µM
  CC50: 6.58 µM
  GI 100%: 1.6 µM
MOLT-4
  GI50: 1.02 µM
  CC50: 7.39 µM
  GI 100%: 2.74 µM
[3]
  activity in KRAS-mutation-harboring cancer cells (in words): active in all oncogenic-KRAS-harboring cancer cell lines tested
CCRF-CEM
  GI50: 0.0195 µM
  CC50: 0.0953 µM
  GI 100%: 0.0431 µM
TK-10; Homo sapiens, TK-10
  GI50: 1.9 µM
TK-10; Homo sapiens, TK-10, read-out: LC 50%
  CC50: 8.25 µM
TK-10; TK-10, Renal Cancer
  GI 100%: 3.96 µM
786-0
  GI 100%: 0.473 µM
  GI50: 0.0603 µM
  CC50: 2.52 µM
NCI-H23; Homo sapiens, NCI-H23
  GI50: 1.15 µM
NCI-H23; Homo sapiens, NCI-H23, read-out: LC 50%
  CC50: 7.59 µM
NCI-H23; NCI-H23, Non-small cell lung carcinoma
  GI 100%: 2.95 µM
BT-549
  GI 100%: 0.316 µM
  GI50: 0.131 µM
  CC50: 0.765 µM
